The values below come from patent publication US12540118B2, “Dendrene amide compound, bactericide and use thereof” (Jiangsu Flag Chemical Industry Co., Ltd., priority 2020, dated 2026).

Where only a bound is given, the exact number is not on record here.

One assay relates to Sphaerotheca fuliginea. As to the kind of experiment: Sphaerotheca fuliginea potting method. In kind it is in vivo. Conditions: Podosphaera fuliginea; 100 mg/L; read-out: Sphaerotheca fuliginea control rating. The method, then:
The fungicidal activity of the control agents and target compounds are determined. The test and investigation method refers to SOP-SC-1101 sphaerotheca fuliginea potting method in disinfectant rolls written by KANGZHUO and GUBAOGEN in “Standard operation specification for testing biological activity of pesticides”.
In the case of `Cc1ccc(C(C)(C)C)cc1C(=C(Cl)Cl)C(C)N(C(=O)c1c(C(F)F)nn(C)c1F)C1CC1` (stereo not drawn) [Compound 200], the pest or weed control at 100 µg/mL was 80 to 100%.

As to `C=C(c1cc(Cl)ccc1Cl)C(C)N(C(=O)c1c(C(F)F)nn(C)c1F)C1CC1` (stereo not drawn) [Compound 76], the pest or weed control at 100 µg/mL was 80 to 100%.

As to `C=C(c1ccc(F)cc1Cl)C(C)N(C(=O)c1c(C(F)F)nn(C)c1F)C1CC1` (stereo not drawn) [Compound 98], the pest or weed control at 100 µg/mL was 80 to 100%.

Turning to `Cc1cccc(C)c1C(CN(C(=O)c1c(C(F)F)nn(C)c1F)C1CC1)=C(Cl)Cl` [Compound 142], the pest or weed control at 100 µg/mL was 80 to 100%.

For `Cc1ccc(C)c(C(=C(Cl)Cl)C(C)N(C(=O)c2c(C(F)F)nn(C)c2F)C2CC2)c1` (stereo not drawn) [Compound 194], the pest or weed control at 100 µg/mL lay in the range of 80 to 100%.

For `C=C(c1cc(F)ccc1F)C(C)N(C(=O)c1c(C(F)F)nn(C)c1F)C1CC1` (stereo not drawn) [Compound 77], the pest or weed control at 100 µg/mL fell in the range of 80 to 100%.

For `Cn1nc(C(F)F)c(C(=O)N(CC(=C(Cl)Cl)c2ccc(C(F)(F)F)cc2Cl)C2CC2)c1F` [Compound 158], the pest or weed control at 100 µg/mL was in the range of 80 to 100%.

As to `C=C(c1c(Br)cc(Br)cc1Br)C(C)N(C(=O)c1c(C(F)F)nn(C)c1F)C1CC1` (stereo not drawn) [Compound 85], the pest or weed control at 100 µg/mL was 80 to 100%.

As to `C=C(CN(C(=O)c1c(C(F)F)nn(C)c1F)C1CC1)c1cc(F)ccc1F` [Compound 24], the pest or weed control at 100 µg/mL is 80 to 100%.

With `C=C(CN(C(=O)c1c(C(F)F)nn(C)c1F)C1CC1)c1cccc(F)c1F` [Compound 12], the pest or weed control at 100 µg/mL lay within 70 to 80%.

For `C=C(CN(C(=O)c1c(C(F)F)nn(C)c1F)C1CC1)c1cc(Cl)cc(Cl)c1` [Compound 2], the pest or weed control at 100 µg/mL was in the range of 80 to 100%.

Take `C=C(c1c(Br)cccc1Br)C(C)N(C(=O)c1c(C(F)F)nn(C)c1F)C1CC1` (stereo not drawn) [Compound 84]: the pest or weed control at 100 µg/mL was in the range of 80 to 100%.

In the case of `Cn1nc(C(F)F)c(C(=O)N(CC(=C(Cl)Cl)c2ccc(Cl)c(Cl)c2)C2CC2)c1F` [Compound 121], the pest or weed control at 100 µg/mL lay in the range of 80 to 100%.

For the compound `C=C(CN(C(=O)c1c(C(F)F)nn(C)c1F)C1CC1)c1ccc(Cl)cc1F` [Compound 42], the pest or weed control at 100 µg/mL was 80 to 100%.

Consider `C=C(CN(C(=O)c1c(C(F)F)nn(C)c1F)C1CC1)c1ccc(Cl)c(C(F)(F)F)c1` [Compound 11], for which the pest or weed control at 100 µg/mL was 80 to 100%.

With `C=C(c1cc(C(C)C)ccc1C)C(C)N(C(=O)c1c(C(F)F)nn(C)c1F)C1CC1` (stereo not drawn) [Compound 92], the pest or weed control at 100 µg/mL is 80 to 100%.

On to `C=C(CN(C(=O)c1c(C(F)F)nn(C)c1F)C1CC1)c1c(Cl)cccc1Cl` [Compound 18], for which the pest or weed control at 100 µg/mL was 80 to 100%.

On to `CC(C(=C(Cl)Cl)c1cc(Cl)cc(Cl)c1)N(C(=O)c1c(C(F)F)nn(C)c1F)C1CC1` (stereo not drawn) [Compound 174], for which the pest or weed control at 100 µg/mL fell in the range of 80 to 100%.

The subject of the next assay is Erysiphe graminis. Briefly: Erysiphe graminis potting method. In kind it is in vivo. Conditions: Blumeria graminis; 100 mg/L; read-out: Erysiphe graminis control rating. The method, then:
The fungicidal activity of the control agents and target compounds are determined. The test and investigation method refers to SOP-SC-1116 Erysiphe graminis potting method in disinfectant rolls written by KANGZHUO and GUBAOGEN in “Standard operation specification for testing biological activity of pesticides”.
On to `Cc1ccc(C(C)(C)C)cc1C(=C(Cl)Cl)C(C)N(C(=O)c1c(C(F)F)nn(C)c1F)C1CC1` (stereo not drawn) [Compound 200], for which the pest or weed control at 100 µg/mL lay within 80 to 100%.

Regarding `C=C(c1cc(Cl)ccc1Cl)C(C)N(C(=O)c1c(C(F)F)nn(C)c1F)C1CC1` (stereo not drawn) [Compound 76], the pest or weed control at 100 µg/mL fell in the range of 80 to 100%.

For `C=C(c1ccc(F)cc1Cl)C(C)N(C(=O)c1c(C(F)F)nn(C)c1F)C1CC1` (stereo not drawn) [Compound 98], the pest or weed control at 100 µg/mL was 80 to 100%.

In the case of `Cc1cccc(C)c1C(CN(C(=O)c1c(C(F)F)nn(C)c1F)C1CC1)=C(Cl)Cl` [Compound 142], the pest or weed control at 100 µg/mL was in the range of 80 to 100%.

Regarding `Cc1ccc(C)c(C(=C(Cl)Cl)C(C)N(C(=O)c2c(C(F)F)nn(C)c2F)C2CC2)c1` (stereo not drawn) [Compound 194], the pest or weed control at 100 µg/mL was 80 to 100%.

Consider `C=C(c1cc(F)ccc1F)C(C)N(C(=O)c1c(C(F)F)nn(C)c1F)C1CC1` (stereo not drawn) [Compound 77], for which the pest or weed control at 100 µg/mL lay in the range of 80 to 100%.

For `Cn1nc(C(F)F)c(C(=O)N(CC(=C(Cl)Cl)c2ccc(C(F)(F)F)cc2Cl)C2CC2)c1F` [Compound 158], the pest or weed control at 100 µg/mL lay in the range of 80 to 100%.

For `C=C(c1c(Br)cc(Br)cc1Br)C(C)N(C(=O)c1c(C(F)F)nn(C)c1F)C1CC1` (stereo not drawn) [Compound 85], the pest or weed control at 100 µg/mL fell in the range of 80 to 100%.

Take `C=C(CN(C(=O)c1c(C(F)F)nn(C)c1F)C1CC1)c1cc(F)ccc1F` [Compound 24]: the pest or weed control at 100 µg/mL was 80 to 100%.

Turning to `C=C(CN(C(=O)c1c(C(F)F)nn(C)c1F)C1CC1)c1cccc(F)c1F` [Compound 12], the pest or weed control at 100 µg/mL fell in the range of 80 to 100%.

For the compound `C=C(CN(C(=O)c1c(C(F)F)nn(C)c1F)C1CC1)c1cc(Cl)cc(Cl)c1` [Compound 2], the pest or weed control at 100 µg/mL fell in the range of 80 to 100%.

On to `C=C(c1c(Br)cccc1Br)C(C)N(C(=O)c1c(C(F)F)nn(C)c1F)C1CC1` (stereo not drawn) [Compound 84], for which the pest or weed control at 100 µg/mL lay within 80 to 100%.

Turning to `Cn1nc(C(F)F)c(C(=O)N(CC(=C(Cl)Cl)c2ccc(Cl)c(Cl)c2)C2CC2)c1F` [Compound 121], the pest or weed control at 100 µg/mL lay in the range of 80 to 100%.

Regarding `C=C(CN(C(=O)c1c(C(F)F)nn(C)c1F)C1CC1)c1ccc(Cl)cc1F` [Compound 42], the pest or weed control at 100 µg/mL lay within 80 to 100%.

For the compound `C=C(CN(C(=O)c1c(C(F)F)nn(C)c1F)C1CC1)c1ccc(Cl)c(C(F)(F)F)c1` [Compound 11], the pest or weed control at 100 µg/mL is 80 to 100%.

For the compound `C=C(c1cc(C(C)C)ccc1C)C(C)N(C(=O)c1c(C(F)F)nn(C)c1F)C1CC1` (stereo not drawn) [Compound 92], the pest or weed control at 100 µg/mL is 80 to 100%.

As to `C=C(CN(C(=O)c1c(C(F)F)nn(C)c1F)C1CC1)c1c(Cl)cccc1Cl` [Compound 18], the pest or weed control at 100 µg/mL fell in the range of 80 to 100%.

Consider `CC(C(=C(Cl)Cl)c1cc(Cl)cc(Cl)c1)N(C(=O)c1c(C(F)F)nn(C)c1F)C1CC1` (stereo not drawn) [Compound 174], for which the pest or weed control at 100 µg/mL fell in the range of 80 to 100%.

For the next assay, the target named is T1, succinate dehydrogenase (Sus scrofa, UniProt A5GZW8+D0VWV4+Q007T0).
T1 construct: isolated from porcine hearts; from tissue; host or cells: porcine heart
T1 sequence (Q0QF01 43-664 partner): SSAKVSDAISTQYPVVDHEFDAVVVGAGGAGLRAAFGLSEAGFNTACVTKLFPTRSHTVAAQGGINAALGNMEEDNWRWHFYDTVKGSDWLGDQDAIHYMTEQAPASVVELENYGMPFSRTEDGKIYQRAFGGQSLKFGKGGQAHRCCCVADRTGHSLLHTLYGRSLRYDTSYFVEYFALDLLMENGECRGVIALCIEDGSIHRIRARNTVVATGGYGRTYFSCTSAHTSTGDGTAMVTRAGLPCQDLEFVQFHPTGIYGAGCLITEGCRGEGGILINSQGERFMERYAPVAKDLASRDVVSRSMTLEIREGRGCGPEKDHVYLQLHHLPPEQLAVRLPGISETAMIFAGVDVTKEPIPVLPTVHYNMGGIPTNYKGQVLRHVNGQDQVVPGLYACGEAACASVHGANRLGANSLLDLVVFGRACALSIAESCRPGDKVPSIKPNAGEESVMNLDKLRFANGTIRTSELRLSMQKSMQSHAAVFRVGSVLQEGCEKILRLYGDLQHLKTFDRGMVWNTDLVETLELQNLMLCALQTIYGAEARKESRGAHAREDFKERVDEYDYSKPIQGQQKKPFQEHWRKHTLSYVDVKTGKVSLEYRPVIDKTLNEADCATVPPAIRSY
T1 sequence (Q007T0 29-280): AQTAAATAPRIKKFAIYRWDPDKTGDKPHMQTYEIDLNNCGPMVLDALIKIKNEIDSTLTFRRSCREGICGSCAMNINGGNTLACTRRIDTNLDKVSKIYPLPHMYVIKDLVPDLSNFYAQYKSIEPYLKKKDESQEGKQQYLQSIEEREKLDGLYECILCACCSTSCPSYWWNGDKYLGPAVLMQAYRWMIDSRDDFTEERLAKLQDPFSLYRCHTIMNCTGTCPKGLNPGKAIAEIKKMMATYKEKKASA
T1 sequence (D0VWV4 30-169): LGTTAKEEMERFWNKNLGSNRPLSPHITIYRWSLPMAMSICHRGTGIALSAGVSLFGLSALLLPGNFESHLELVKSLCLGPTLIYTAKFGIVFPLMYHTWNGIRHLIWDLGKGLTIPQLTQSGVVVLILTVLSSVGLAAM
T1 sequence (A5GZW8 57-159 limits assumed): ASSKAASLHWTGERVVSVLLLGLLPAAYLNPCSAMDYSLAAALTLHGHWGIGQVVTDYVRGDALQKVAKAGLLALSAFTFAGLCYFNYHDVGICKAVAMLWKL
Briefly: Enzyme activity assay, succinate dehydrogenase (DCIP reduction). In kind it is biochemical, porcine. Conditions: read-out: Inhibitors (10 μM, SQR). Put shortly:
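Porcine heart succinate dehydrogenase (2 nM) in 100 mM sodium phosphate pH 7.4, 0.3 mM EDTA, 20 mM sodium succinate and 53 μM DCIP at 23° C with stirring. DCIP reduction followed at 600 nm (ε 21 mM^−1 cm^−1); linear slope minus baseline gives initial rate.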
On to `Cc1ccc(C(C)(C)C)cc1C(=C(Cl)Cl)C(C)N(C(=O)c1c(C(F)F)nn(C)c1F)C1CC1` (stereo not drawn) [Compound 200], for which the inhibition at 10 µM was more than 90%.

In the case of `C=C(c1cc(Cl)ccc1Cl)C(C)N(C(=O)c1c(C(F)F)nn(C)c1F)C1CC1` (stereo not drawn) [Compound 76], the inhibition at 10 µM is more than 90%.

On to `C=C(c1ccc(F)cc1Cl)C(C)N(C(=O)c1c(C(F)F)nn(C)c1F)C1CC1` (stereo not drawn) [Compound 98], for which the inhibition at 10 µM was more than 90%.

As for `Cc1cccc(C)c1C(CN(C(=O)c1c(C(F)F)nn(C)c1F)C1CC1)=C(Cl)Cl` [Compound 142], the inhibition at 10 µM was more than 90%.

In the case of `Cc1ccc(C)c(C(=C(Cl)Cl)C(C)N(C(=O)c2c(C(F)F)nn(C)c2F)C2CC2)c1` (stereo not drawn) [Compound 194], the inhibition at 10 µM was more than 90%.

As for `C=C(c1cc(F)ccc1F)C(C)N(C(=O)c1c(C(F)F)nn(C)c1F)C1CC1` (stereo not drawn) [Compound 77], the inhibition at 10 µM was more than 90%.

On to `Cn1nc(C(F)F)c(C(=O)N(CC(=C(Cl)Cl)c2ccc(C(F)(F)F)cc2Cl)C2CC2)c1F` [Compound 158], for which the inhibition at 10 µM was more than 90%.

Turning to `C=C(c1c(Br)cc(Br)cc1Br)C(C)N(C(=O)c1c(C(F)F)nn(C)c1F)C1CC1` (stereo not drawn) [Compound 85], the inhibition at 10 µM was more than 90%.

As to `C=C(CN(C(=O)c1c(C(F)F)nn(C)c1F)C1CC1)c1cc(F)ccc1F` [Compound 24], the inhibition at 10 µM was more than 90%.

Consider `C=C(CN(C(=O)c1c(C(F)F)nn(C)c1F)C1CC1)c1cccc(F)c1F` [Compound 12], for which the inhibition at 10 µM was more than 90%.

On to `C=C(CN(C(=O)c1c(C(F)F)nn(C)c1F)C1CC1)c1cc(Cl)cc(Cl)c1` [Compound 2], for which the inhibition at 10 µM is more than 90%.

Turning to `C=C(c1c(Br)cccc1Br)C(C)N(C(=O)c1c(C(F)F)nn(C)c1F)C1CC1` (stereo not drawn) [Compound 84], the inhibition at 10 µM is more than 90%.

Consider `Cn1nc(C(F)F)c(C(=O)N(CC(=C(Cl)Cl)c2ccc(Cl)c(Cl)c2)C2CC2)c1F` [Compound 121], for which the inhibition at 10 µM was more than 90%.

On to `C=C(CN(C(=O)c1c(C(F)F)nn(C)c1F)C1CC1)c1ccc(Cl)cc1F` [Compound 42], for which the inhibition at 10 µM is more than 90%.

For the compound `C=C(CN(C(=O)c1c(C(F)F)nn(C)c1F)C1CC1)c1ccc(Cl)c(C(F)(F)F)c1` [Compound 11], the inhibition at 10 µM is more than 90%.

Turning to `C=C(c1cc(C(C)C)ccc1C)C(C)N(C(=O)c1c(C(F)F)nn(C)c1F)C1CC1` (stereo not drawn) [Compound 92], the inhibition at 10 µM is more than 90%.

Regarding `C=C(CN(C(=O)c1c(C(F)F)nn(C)c1F)C1CC1)c1c(Cl)cccc1Cl` [Compound 18], the inhibition at 10 µM was more than 90%.

For the compound `CC(C(=C(Cl)Cl)c1cc(Cl)cc(Cl)c1)N(C(=O)c1c(C(F)F)nn(C)c1F)C1CC1` (stereo not drawn) [Compound 174], the inhibition at 10 µM was more than 90%.
